Reference: ChEMBL document CHEMBL1124940, “N-[(arylmethoxy)phenyl] carboxylic acids, hydroxamic acids, tetrazoles, and sulfonyl carboxamides. Potent orally active leukotriene D4 antagonists of novel structure” (J Med Chem, 1990)

How the values were obtained:
Cavia porcellus [1] = test: Inhibition of LTD4-induced broncho constriction in Guinea pig after intragastrical administration of a dose of 25 mg/kg; type: functional; conditions: po, route intragastric
Cavia porcellus [2] = test: Inhibition of LTD4-induced broncho constriction in Guinea pig after intragastrical administration of a dose of 3 mg/kg; type: functional; conditions: po, route intragastric
Cavia porcellus [3] = test: Tested for the inhibition of LTD4-induced broncho constriction in Guinea pig, injected intraduodenally at a dose of 25 mg/kg; type: functional; conditions: route intraduodenal
Cavia porcellus [4] = test: Inhibition of LTD4-induced broncho constriction in Guinea pig after intragastrical administration of a dose of 1 mg/kg; type: functional; conditions: po, route intragastric
Cavia porcellus [5] = test: Inhibition of LTD4-induced broncho constriction in Guinea pig after intragastrical administration of a dose of 0.3 mg/kg; type: functional; conditions: po, route intragastric
Cavia porcellus [6] = test: Inhibition of LTD4-induced broncho constriction in Guinea pig after intraduodenal administration of a dose of 25 mg/kg; type: functional
Cavia porcellus [7] = test: Tested for the inhibition of LTD4-induced broncho constriction in Guinea pig, injected intraduodenally at a dose of 5 mg/kg; type: functional; conditions: route intraduodenal
Rattus norvegicus = test: Antiinflammatory effect was studied in a rat carrageenan paw edema (CE) assay at 50 mg/kg; type: functional
Cavia porcellus [8] = test: In vitro inhibition of LTD4-induced bronchoconstriction after intragastrical administration 120 min before agonist into isolated guinea pig trachea; type: functional; conditions: po
Cavia porcellus [9] = test: In vitro for inhibition of ovalbumin-induced bronchoconstriction in isolated guinea pig trachea by injecting intraduodenally; type: functional; conditions: intraduodenal
Cavia porcellus [10] = test: Examined in vitro for LTD4-induced bronchoconstriction in isolated guinea pig trachea by injecting intraduodenally; type: functional; conditions: intraduodenal
[11] = target: T1, Polyunsaturated fatty acid 5-lipoxygenase (Rattus norvegicus, UniProt P12527); test: Concentration for 50% inhibition of A-23187-stimulated radiolabeled 5-HETE and TXB2 synthesis by PMN 5-lipoxygenase; type: functional
T1 sequence (P12527 whole entry): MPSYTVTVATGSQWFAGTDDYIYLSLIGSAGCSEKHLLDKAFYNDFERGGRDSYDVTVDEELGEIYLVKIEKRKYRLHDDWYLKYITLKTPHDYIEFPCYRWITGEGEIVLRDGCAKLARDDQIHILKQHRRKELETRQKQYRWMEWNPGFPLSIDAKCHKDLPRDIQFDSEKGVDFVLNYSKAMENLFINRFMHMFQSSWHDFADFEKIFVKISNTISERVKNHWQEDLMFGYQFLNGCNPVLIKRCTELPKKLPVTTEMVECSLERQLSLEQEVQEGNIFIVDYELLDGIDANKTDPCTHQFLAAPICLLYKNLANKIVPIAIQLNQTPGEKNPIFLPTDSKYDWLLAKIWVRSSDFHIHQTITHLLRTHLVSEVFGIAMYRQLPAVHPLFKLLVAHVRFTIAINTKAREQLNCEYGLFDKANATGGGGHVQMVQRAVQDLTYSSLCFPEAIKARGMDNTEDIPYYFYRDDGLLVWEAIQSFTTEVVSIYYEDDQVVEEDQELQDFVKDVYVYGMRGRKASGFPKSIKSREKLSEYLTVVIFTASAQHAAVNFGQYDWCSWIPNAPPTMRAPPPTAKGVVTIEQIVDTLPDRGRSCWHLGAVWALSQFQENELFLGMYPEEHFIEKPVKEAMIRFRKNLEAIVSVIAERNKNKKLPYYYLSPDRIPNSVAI

Cyclooxygenase = target: T2, Cyclooxygenase (Rattus norvegicus, UniProt P35355+Q63921); test: Concentration for 50% inhibition of A-23187-stimulated radiolabeled 5-HETE and TXB2 synthesis by Prostaglandin G/H synthase; type: protein assay
T2 sequence (P35355 whole entry): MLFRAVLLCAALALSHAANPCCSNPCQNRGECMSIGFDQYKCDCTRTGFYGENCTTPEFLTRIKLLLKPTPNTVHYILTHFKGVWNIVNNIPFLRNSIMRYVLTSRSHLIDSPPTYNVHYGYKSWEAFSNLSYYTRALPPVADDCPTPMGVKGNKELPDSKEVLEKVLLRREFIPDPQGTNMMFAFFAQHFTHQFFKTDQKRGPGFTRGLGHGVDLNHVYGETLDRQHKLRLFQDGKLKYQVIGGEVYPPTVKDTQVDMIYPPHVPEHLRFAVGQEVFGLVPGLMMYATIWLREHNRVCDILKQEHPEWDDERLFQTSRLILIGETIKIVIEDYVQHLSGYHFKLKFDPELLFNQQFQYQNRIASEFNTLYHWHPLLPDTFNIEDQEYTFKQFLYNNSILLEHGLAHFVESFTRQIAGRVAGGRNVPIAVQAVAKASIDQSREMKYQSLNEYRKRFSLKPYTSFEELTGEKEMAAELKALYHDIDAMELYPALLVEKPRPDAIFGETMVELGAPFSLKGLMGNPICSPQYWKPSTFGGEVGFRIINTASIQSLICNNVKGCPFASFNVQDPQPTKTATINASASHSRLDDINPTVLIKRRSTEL
T2 sequence (Q63921 whole entry): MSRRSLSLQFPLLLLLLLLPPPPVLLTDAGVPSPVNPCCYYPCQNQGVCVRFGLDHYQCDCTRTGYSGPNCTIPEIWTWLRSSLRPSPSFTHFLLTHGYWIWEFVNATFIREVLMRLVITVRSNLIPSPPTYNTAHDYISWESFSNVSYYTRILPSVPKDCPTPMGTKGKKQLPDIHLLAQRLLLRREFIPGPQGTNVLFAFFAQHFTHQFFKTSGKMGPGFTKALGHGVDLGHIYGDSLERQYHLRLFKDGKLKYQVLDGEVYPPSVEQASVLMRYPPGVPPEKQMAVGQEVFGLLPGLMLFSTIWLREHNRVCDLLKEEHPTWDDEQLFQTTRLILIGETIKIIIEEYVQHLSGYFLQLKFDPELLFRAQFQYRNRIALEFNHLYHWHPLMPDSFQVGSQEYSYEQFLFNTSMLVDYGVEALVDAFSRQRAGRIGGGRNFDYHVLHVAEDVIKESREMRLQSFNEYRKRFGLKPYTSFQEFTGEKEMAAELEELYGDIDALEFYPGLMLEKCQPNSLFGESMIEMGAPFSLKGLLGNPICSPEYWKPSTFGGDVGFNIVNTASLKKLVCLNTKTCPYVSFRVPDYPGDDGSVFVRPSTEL

Cavia porcellus [12] = test: In vitro inhibition of ovalbumin-induced bronchoconstriction after intragastrical administration 120 min before agonist into isolated guinea pig trachea; type: functional; conditions: po
Cavia porcellus [13] = test: Dissociation constant was determined In vitro in isolated guinea pig trachea after intraduodenal administration; type: ADME, organism-based; conditions: in vivo, other

In the case of `CONC(=O)CCc1cccc(OCc2ccc3ccccc3n2)c1`, the inhibition in vivo at 25 mg/kg (Cavia porcellus [1]) is reported as 86% and the inhibition in vivo at 3 mg/kg (Cavia porcellus [2]) is reported as 5%.

Work on `O=C(NO)c1cccc(OCc2ccc3ccccc3n2)c1` yielded an inhibition in vivo at 25 mg/kg (Cavia porcellus [3]) of under 33%.

Work on `c1cc(Cc2nnn[nH]2)cc(OCc2ncc3ccccc3n2)c1` yielded an inhibition in vivo at 25 mg/kg (Cavia porcellus [3]) of under 77%.

With `c1ccc(-c2nn[nH]n2)c(OCc2ccc3ccccc3n2)c1` the inhibition in vivo at 25 mg/kg (Cavia porcellus [3]) was under 31%.

For `Cc1ccc(S(=O)(=O)NC(=O)Cc2cccc(OCc3ccc4ccccc4n3)c2)cc1`, the inhibition in vivo at 25 mg/kg (Cavia porcellus [1]) was under 16% and the inhibition in vivo at 25 mg/kg (Cavia porcellus [3]) was under 75%.

`O=C(NS(=O)(=O)c1ccccc1)c1cccc(OCc2ccc3ccccc3n2)c1` was tested, and the inhibition in vivo at 1 mg/kg (Cavia porcellus [4]) was under 82% and the inhibition in vivo at 0.3 mg/kg (Cavia porcellus [5]) was under 12%.

For `CONC(=O)Cc1cccc(OCc2nc3ccccc3n2C)c1`, the inhibition in vivo at 25 mg/kg (Cavia porcellus [1]) was under 58%.

`O=C(O)CCc1cccc(OCc2ccc3ccccc3n2)c1` was tested, and the inhibition in vivo at 25 mg/kg (Cavia porcellus [1]) was under 75%.

Work on `CON(C)C(=O)Cc1cccc(OCc2ccc3ccccc3n2)c1` yielded an inhibition in vivo at 25 mg/kg (Cavia porcellus [1]) of 93%.

With `O=C(NOCc1ccccc1)c1cccc(OCc2ccc3ccccc3n2)c1` the inhibition in vivo at 25 mg/kg (Cavia porcellus [1]) was under -14% and the inhibition in vivo at 25 mg/kg (Cavia porcellus [6]) was under 71%.

`c1ccc2nc(COc3ccc(-c4nn[nH]n4)cc3)ccc2c1` showed an inhibition in vivo at 5 mg/kg (Cavia porcellus [7]) of under 28%.

Work on `CC(C)Cc1ccc(C(C)C(=O)O)cc1` (stereo not drawn) [IBUPROFEN] yielded an inhibition in vivo at 50 mg/kg (Rattus norvegicus) of 63%.

Compound `O=S(=O)(Nc1cccc(OCc2ccc3ccccc3n2)c1)C(F)(F)F` [RITOLUKAST] has an ED50 (Cavia porcellus [8]) of 0.1 mg/kg, an ED50 (Cavia porcellus [9]) of 3 mg/kg and an ED50 (Cavia porcellus [10]) of 0.3 mg/kg. It also gave an IC50 [11] of 2000 nM, an IC50 (Cyclooxygenase) of 9100 nM and an ED50 (Cavia porcellus [12]) of 0.6 mg/kg. The pKb (Cavia porcellus [13]) was 7.7.
